# Source: ChEMBL document CHEMBL1201862, “PubChem BioAssay data set” (2004)
# Calls of active or inactive are those of the source. Rule as the data show it, for most assays here: actives have a measured EC50 and inactives only a lower limit.
# Tests used:
# [1] = molecular target: T1, Zinc finger protein mex-5 (Caenorhabditis elegans, UniProt Q9XUB2); assay: potency of MEX-5 RNA-binding blockers – biochemical, C. elegans, fluorescence polarization, dose response (AID 1960)
# T1 sequence (Q9XUB2 whole entry): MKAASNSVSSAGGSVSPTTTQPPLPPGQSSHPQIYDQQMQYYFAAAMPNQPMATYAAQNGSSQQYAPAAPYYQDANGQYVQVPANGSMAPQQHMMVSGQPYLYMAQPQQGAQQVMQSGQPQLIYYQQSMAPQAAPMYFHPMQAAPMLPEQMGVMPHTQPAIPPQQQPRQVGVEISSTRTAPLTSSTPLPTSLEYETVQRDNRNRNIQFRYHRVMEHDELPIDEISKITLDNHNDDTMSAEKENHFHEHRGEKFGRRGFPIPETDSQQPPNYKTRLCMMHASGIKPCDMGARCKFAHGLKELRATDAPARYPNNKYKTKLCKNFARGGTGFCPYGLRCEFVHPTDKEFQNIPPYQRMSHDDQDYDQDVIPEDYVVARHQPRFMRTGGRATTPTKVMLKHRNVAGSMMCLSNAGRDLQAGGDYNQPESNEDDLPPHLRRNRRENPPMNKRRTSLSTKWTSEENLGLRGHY
# [2] = molecular target: T2, RNA-binding protein pos-1 (Caenorhabditis elegans, UniProt G5EF15); assay: disruptors of C. elegans POS-1 RNA interaction – biochemical, fluorescence polarization, dose response (AID 1964);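 also: purified POS-1 fused to maltose binding protein made in E. coli; potency of compounds blocking POS-1 binding to fluorescent RNA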
# T2 sequence (G5EF15 whole entry): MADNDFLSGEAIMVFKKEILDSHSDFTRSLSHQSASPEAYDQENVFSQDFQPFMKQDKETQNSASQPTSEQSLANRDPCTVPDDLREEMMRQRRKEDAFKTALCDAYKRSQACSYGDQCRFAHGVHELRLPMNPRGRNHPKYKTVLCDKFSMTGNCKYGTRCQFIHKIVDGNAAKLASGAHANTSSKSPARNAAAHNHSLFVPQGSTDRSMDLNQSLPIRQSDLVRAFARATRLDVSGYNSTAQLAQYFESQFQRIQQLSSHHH
# [3] = molecular target: T3, Heat shock factor protein 1 (Mus musculus, UniProt P38532); assay: decrease of HSF1-responsive luciferase luminescence – cell-based, NIH3T3, dose retest, confirmation (AID 2382); type: functional;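 also: NIH3T3 fibroblasts with HSF1-driven luciferase reporter stressed by proteasome inhibitor MG132; luminescence from HSF1-driven luciferase expression after 8 hours of MG132 stress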
# T3 sequence (P38532 whole entry): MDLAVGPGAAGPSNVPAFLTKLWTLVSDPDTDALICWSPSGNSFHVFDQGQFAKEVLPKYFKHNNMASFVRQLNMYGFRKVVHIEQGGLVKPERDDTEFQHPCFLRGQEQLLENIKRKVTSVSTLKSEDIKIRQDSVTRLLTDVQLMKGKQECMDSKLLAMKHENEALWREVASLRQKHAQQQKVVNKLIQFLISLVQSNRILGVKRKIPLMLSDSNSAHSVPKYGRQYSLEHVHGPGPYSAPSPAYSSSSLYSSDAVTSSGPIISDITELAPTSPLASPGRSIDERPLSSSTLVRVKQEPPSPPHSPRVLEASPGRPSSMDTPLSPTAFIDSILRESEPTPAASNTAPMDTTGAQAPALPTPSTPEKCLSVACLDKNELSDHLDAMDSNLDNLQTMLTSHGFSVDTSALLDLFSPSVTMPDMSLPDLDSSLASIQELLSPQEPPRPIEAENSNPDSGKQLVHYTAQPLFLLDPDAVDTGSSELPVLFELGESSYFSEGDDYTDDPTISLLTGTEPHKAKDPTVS
# Protein RecA = molecular target: T4, Protein RecA (Mycobacterium tuberculosis, UniProt P9WHJ3); assay: Fluorescence Cell-Free Homogeneous Dose Retest to Identify Inhibitors of RecA-Intein Splicing Activity. [Related pubchem assays (depositor defined):AID2097, AID2223, AID489010, AID492950]; type: functional
# T4 sequence (P9WHJ3 whole entry): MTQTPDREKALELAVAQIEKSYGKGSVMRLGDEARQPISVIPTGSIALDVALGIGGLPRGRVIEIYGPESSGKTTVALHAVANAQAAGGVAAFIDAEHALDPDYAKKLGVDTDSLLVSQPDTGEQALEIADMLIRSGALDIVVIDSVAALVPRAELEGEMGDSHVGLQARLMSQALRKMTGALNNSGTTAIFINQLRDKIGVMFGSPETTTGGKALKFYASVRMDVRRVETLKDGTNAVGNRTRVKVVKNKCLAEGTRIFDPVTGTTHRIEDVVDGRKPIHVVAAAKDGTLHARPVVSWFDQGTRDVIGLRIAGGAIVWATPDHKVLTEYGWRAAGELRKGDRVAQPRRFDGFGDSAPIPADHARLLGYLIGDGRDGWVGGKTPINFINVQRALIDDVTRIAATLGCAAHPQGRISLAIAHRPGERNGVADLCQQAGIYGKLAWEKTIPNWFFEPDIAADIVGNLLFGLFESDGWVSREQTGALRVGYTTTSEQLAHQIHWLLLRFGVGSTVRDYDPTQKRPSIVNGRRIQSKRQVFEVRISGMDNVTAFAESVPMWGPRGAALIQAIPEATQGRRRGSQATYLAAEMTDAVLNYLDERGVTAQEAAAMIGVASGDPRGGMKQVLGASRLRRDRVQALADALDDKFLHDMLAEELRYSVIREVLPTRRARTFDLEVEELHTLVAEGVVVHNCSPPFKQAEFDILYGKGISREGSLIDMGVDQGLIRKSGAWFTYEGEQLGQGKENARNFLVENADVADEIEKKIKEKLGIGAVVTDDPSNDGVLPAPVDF
# [4] = molecular target: T5, Replicative DNA helicase DnaB (Mycobacterium tuberculosis, UniProt P9WMR3); assay: DnaB intein splicing inhibitors, dose response, biochemical, cell-free fluorescence (AID 449749); type: functional
# T5 sequence (P9WMR3 whole entry): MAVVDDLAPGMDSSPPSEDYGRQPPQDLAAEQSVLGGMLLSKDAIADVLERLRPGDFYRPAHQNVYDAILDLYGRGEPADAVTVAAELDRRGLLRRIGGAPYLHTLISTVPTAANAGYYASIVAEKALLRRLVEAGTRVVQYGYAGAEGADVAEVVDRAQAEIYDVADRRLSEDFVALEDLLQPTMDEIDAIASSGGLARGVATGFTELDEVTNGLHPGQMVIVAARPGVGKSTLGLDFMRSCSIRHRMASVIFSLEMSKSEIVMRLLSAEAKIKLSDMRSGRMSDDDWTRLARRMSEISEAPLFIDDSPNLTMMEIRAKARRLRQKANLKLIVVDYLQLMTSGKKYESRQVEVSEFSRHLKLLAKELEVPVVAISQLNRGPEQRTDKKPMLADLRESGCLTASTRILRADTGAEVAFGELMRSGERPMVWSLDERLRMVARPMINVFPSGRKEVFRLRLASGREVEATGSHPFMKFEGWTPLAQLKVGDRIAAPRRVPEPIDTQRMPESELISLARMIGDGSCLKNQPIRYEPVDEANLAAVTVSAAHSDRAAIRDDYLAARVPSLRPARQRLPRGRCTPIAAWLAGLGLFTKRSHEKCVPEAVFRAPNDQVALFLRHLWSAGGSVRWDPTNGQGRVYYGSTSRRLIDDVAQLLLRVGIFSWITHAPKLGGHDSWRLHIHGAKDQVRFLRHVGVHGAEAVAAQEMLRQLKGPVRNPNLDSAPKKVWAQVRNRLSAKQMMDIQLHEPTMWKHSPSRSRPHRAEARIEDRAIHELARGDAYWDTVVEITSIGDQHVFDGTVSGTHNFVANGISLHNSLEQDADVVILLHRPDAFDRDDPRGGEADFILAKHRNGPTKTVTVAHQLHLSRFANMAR
# Genome polyprotein = Genome polyprotein (dengue virus type 2, UniProt P29990); assay: flavivirus cap methylation enzyme inhibition – biochemical, confirmation dose response, primary screen (AID 588689); type: functional
# Genome polyprotein, sequence (P29990 2492-3391 limits assumed): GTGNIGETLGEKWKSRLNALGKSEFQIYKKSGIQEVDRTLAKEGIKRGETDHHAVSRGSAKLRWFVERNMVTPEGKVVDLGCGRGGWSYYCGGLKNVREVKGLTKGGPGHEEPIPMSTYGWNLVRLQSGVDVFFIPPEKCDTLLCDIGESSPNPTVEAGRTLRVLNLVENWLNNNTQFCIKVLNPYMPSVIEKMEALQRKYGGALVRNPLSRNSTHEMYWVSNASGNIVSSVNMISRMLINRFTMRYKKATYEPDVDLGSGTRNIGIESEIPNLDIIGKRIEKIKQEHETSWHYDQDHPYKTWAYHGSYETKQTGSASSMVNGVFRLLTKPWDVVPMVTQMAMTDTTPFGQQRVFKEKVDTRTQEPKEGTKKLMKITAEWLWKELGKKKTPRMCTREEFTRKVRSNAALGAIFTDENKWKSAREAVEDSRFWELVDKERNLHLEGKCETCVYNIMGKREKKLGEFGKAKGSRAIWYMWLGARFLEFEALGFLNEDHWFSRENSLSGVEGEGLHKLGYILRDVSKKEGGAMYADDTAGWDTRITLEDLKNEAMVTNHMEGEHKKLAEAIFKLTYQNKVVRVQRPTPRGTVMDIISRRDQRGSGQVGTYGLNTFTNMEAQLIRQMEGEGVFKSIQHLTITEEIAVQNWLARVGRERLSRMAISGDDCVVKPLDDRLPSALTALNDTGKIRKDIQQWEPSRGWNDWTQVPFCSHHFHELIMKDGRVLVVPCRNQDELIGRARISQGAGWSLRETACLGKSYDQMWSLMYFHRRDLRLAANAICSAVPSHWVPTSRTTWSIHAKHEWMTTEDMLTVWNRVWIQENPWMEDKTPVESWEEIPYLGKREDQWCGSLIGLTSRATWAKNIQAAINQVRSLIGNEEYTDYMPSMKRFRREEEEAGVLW
# [5] = molecular target: T6, Ubiquitin-conjugating enzyme E2 N (Homo sapiens, UniProt P61088); type: functional;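 also: Dose-response confirmation in a TR-FRET assay detecting UBC13-driven polyubiquitin chain formation, inhibition measured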
# T6 sequence (P61088 whole entry): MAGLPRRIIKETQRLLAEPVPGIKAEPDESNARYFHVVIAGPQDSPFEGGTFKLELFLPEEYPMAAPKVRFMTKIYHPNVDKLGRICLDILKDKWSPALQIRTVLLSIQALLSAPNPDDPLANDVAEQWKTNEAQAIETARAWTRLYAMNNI
# [6] = molecular target: T7, Corticotropin-releasing factor receptor 2/Corticotropin-releasing factor-binding protein (Homo sapiens, UniProt P24387+Q13324); assay: activators of CRF receptor 2 with binding protein – uHTS hits, confirmation (AID 602473); type: functional; conditions: read-out: EC50_Mean
# T7 sequence (Q13324 whole entry): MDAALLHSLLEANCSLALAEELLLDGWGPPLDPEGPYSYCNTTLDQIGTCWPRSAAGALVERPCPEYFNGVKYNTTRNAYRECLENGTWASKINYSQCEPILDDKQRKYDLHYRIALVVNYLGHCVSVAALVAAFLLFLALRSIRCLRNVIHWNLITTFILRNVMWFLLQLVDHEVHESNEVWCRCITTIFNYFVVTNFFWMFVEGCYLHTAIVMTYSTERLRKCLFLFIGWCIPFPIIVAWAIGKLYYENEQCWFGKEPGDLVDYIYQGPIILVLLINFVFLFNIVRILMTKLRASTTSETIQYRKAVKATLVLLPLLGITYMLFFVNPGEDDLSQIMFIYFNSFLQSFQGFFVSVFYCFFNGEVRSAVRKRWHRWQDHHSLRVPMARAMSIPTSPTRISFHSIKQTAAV
# T7 sequence (P24387 whole entry): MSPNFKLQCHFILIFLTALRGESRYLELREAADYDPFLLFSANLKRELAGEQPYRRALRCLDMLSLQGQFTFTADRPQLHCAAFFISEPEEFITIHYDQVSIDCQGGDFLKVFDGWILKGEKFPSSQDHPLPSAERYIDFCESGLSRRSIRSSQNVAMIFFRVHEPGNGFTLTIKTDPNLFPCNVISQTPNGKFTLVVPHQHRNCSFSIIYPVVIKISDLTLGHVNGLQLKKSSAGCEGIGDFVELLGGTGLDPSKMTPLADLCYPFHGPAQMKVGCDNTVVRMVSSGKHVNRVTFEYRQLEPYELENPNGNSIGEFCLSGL
# [7] = reduction of Shn3 3'UTR-driven luciferase in osteoblasts – cell-based, Clone20 osteoblasts, firefly luciferase, cherry-picked, dose response (AID 624132); type: functional;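 also: firefly luciferase luminescence from reporter carrying the Shn3 3'UTR in osteoblasts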
# [8] = viability of uninfected HEp-2 cells – cell-based, HTS, cytotoxicity control for RSV inhibitor project, dose response (AID 2410); type: functional; conditions: human respiratory syncytial virus
# [9] = Luminescence Cell-Based Dose Confirmation HTS to Identify Activators of 5'UTR Stem-Loop Driven Alpha-Synuclein mRNA Translation in H4 Neuroglioblastoma Cells. [Related pubchem assays: 1829 (Project Summary), 1814 (Primary HTS)]; type: functional
# H4 = assay: Luminescence Cell-Based Dose Response HTS to Identify Activators of 5'UTR Stem-Loop Driven Prion Protein mRNA Translation in H4 Neuroglioblastoma Cells. [Related pubchem assays: 1829 (Project Summary), 1814 (Primary HTS)]; type: functional; conditions: Homo sapiens
# [10] = Luminescence Cell-Based Dose Response HTS to Identify Activators of Luciferase Translation or Activity in H4 […] Cells. [Related pubchem assays: 1829 (Project Summary), 1814 (Primary HTS)]; type: functional
structure (smiles),measurement,setting,value
CCCCC1=CC2=C(c3ccco3)C(=O)C(C)(OC(=O)c3ccc(OC)cc3)C(=O)C2=CN1C1CC1 (stereo not drawn),EC50,[1],> 300 µM (not active)
same,EC50,[2],> 300 µM (not active)
CCc1cc(=O)oc2cc(C)cc(OC(C)C(=O)O)c12 (stereo not drawn),EC50,[1],> 300 µM (not active)
same,EC50,[2],> 300 µM (not active)
CC1=NN(c2ccccc2)C(=O)C1N=Nc1ccc(S(N)(=O)=O)cc1 (stereo not drawn),EC50,[3],> 195 µM (not active)
Cc1ccccc1N1C(=O)C(Cl)=C(N2CCOCC2)C1=O,EC50,Protein RecA,4.98 µM (active)
same,AC50,[4],13 µM (active)
same,IC50,Genome polyprotein,43.7 µM (active)
O=C(Nc1cc(S(=O)(=O)N2CCOCC2)ccc1O)c1ccc2c(c1)S(=O)(=O)c1ccccc1C2=O,IC50,Genome polyprotein,49.6 µM (active)
O=C(CSc1nnc(COc2ccc3c(c2)CCCC3)o1)Nc1ccc(F)cc1,EC50,[3],> 195 µM (not active)
O=C(N1CCOCC1)N1CCC(n2nnc3cc(F)ccc32)CC1,EC50,[1],46.7 µM (inconclusive)
same,EC50,[2],39.2 µM (active)
COc1cc(SC)ccc1C(=O)NCC1CCCO1 (stereo not drawn),EC50,[3],> 195 µM (not active)
CC(=O)c1ccc(OCCCC(=O)NNC(=O)c2ccccn2)cc1,IC50,[5],> 20 µM (inactive)
O=C(O)CCc1ccc(-c2ccc(Br)cc2)n1-c1ccc(O)cc1,IC50,Genome polyprotein,> 100 µM (active)
COc1ccc(C(C2C(=O)CC(C)(C)CC2=O)C2C(=O)CC(C)(C)CC2=O)cc1,IC50,Genome polyprotein,30.4 µM (active)
CC1(C)CC(=O)C2=C(C1)N(Cc1ccccc1)C(=O)C2(NC(=O)C(C)(C)C)C(F)(F)F (stereo not drawn),EC50,[3],> 195 µM (not active)
Cc1cc(N2CCCCC2)nc(N)n1,EC50,[6],6.28 µM (active)
Sc1nnc(COc2cccc3ccccc23)n1Cc1ccccc1,AC50,[7],48 µM (active)
Cc1cc(-n2c(C)cc(C(=O)CSc3nc4ccccc4c(=O)n3Cc3ccco3)c2C)no1,EC50,[6],> 53 µM (inactive)
Cc1c(C(=O)Nc2ccc(F)cc2)sc2ncn(CC(=O)N3CCCCC3)c(=O)c12,EC50,[3],> 195 µM (not active)
COc1ccc(Cl)cc1NC(=O)CSc1nc2ccsc2c(=O)n1CC1CCC(C(=O)O)CC1 (stereo not drawn),CC50,[8],> 50 µM (active)
same,EC50,[3],> 195 µM (not active)
CCOC(=O)c1ccc(NC(=O)C2C3C=CC(O3)C2C(=O)O)cc1 (stereo not drawn),EC50,[9],> 60 µM (not active)
same,EC50,H4,> 120 µM (not active)
same,EC50,[3],> 195 µM (not active)
same,EC50,[10],> 120 µM (not active)
O=C1C(Cl)=C(N2CCCC2)C(=O)N1c1ccccc1F,IC50,Genome polyprotein,84.4 µM (active)
COc1ccc(/C=C2/C(=O)NC(=O)N(c3ccc(C)c(C)c3)C2=O)cc1CN1C(=O)c2ccccc2C1=O,IC50,Genome polyprotein,99.5 µM (active)
CCOc1ccc(/C=N/NC(=O)c2ccc(Cn3cc([N+](=O)[O-])cn3)o2)cc1,EC50,[3],> 195 µM (not active)
Cc1ccc(/C=N/NC(=O)c2nnn(-c3nonc3N)c2CN(C)C2CCCCC2)cc1,EC50,[3],> 195 µM (not active)
Cc1ccc(NCC(=O)N/N=C/c2ccc(C(=O)O)cc2)cc1,EC50,[1],> 300 µM (not active)
same,EC50,[2],> 300 µM (not active)
